Assay results: patent publication US10669289B2, “Boronic acid derivatives” (MERCK PATENT GMBH, priority 2014, dated 2020)

Experiments:
[1] = target: human immuno proteasome (LMP7) (Homo sapiens (Human), UniProt P28062); experiment: Determination of LMP7 activity (fluorescence intensity assay, Suc-LLVY-AMC); format: biochemical
Description: Determination of LMP7 Activity:
Measurement of LMP7 inhibition is performed in 384 well format based on fluorescence intensity assay.
(§1) Purified human immuno proteasome (0.25 nM) and serial diluted compounds in DMSO (range of concentrations from 30 μM to 15 pM) or controls are incubated for 20 minutes or 120 minutes (long incubation) at 25° C. in assay buffer containing 50 mM Tris pH 7.4, 0.03% SDS, 1 mM EDTA and 1% DMSO. The reaction is initiated by the addition of the fluorogenic peptide substrate, Suc-LLVY-AMC (Bachem 1-1395), at a concentration of 40 μM. After 60 minutes of incubation at 37° C., fluorescence intensity is measured at λex=350 nm and λem=450 nm with a fluorescence reader (Perkin Elmer Envision reader or equivalent).
(§2) Unless indicated otherwise the results are obtained after incubation for 20 minutes.

[2] = target: human constitutive proteasome (Beta5) (Homo sapiens (Human), UniProt P28074); experiment: Determination of Beta5 activity (fluorescence intensity assay, Suc-LLVY-AMC); format: biochemical
Description: Determination of Beta5 Activity:
Measurement of Beta5 inhibition is performed in 384 well format based on fluorescence intensity assay.
as §1, with “constitutive” for “immuno”, “(1.25” for “(0.25”
as §2

[3] = LMP7 versus Beta5, long incubation (120 min)
[4] = LMP7 versus Beta5, incubation for 20 minutes

SMILES	Selectivity LMP7 vs Beta5 [1, 3]	IC50 ([1]; long incubation (120 min)) [µM]	IC50 ([2]; long incubation (120 min)) [µM]	Selectivity LMP7 vs Beta5 [1, 4]	IC50 ([1]; incubation for 20 minutes) [µM]	IC50 ([2]; incubation for 20 minutes) [µM]
C=CC(=O)N(CC)CC(=O)N[C@@H](Cc1coc2ccccc12)B(O)O [Compound No. 36, [(1R)-2-(benzofuran-3-yl)-1-[[2-[ethyl(prop-2-enoyl)amino]acetyl]-amino]ethyl]boronic Acid]				+++ (70 ≤ 100)	< 0.05	0.05 to 0.5
C=C(C)C(=O)N(CC)CC(=O)N[C@@H](Cc1ccc(C)cc1C)B(O)O [Compound No. 32, [(1R)-2-(2,4-dimethylphenyl)-1-[[2-[ethyl(2-methylprop-2-enoyl)-amino]acetyl]amino]ethyl]boronic Acid]				+++ (70 ≤ 100)	0.05 to 0.5	> 5
C=C(C)C(=O)N(CC)CC(=O)N[C@@H](Cc1ccccc1)B(O)O [Compound No. 28, [(1R)-1-[[2-[ethyl(2-methylprop-2-enoyl)amino]acetyl]amino]-2-phenyl-ethyl]boronic Acid]				+ (Selectivity < 50)	0.5 to 5	> 5
C=CC(=O)N(CCC)CC(=O)N[C@@H](Cc1ccc(C)c(C)c1)B(O)O [Compound No. 5, [(1R)-2-(3,4-dimethylphenyl)-1-[[2-[prop-2-enoyl(propyl)amino]-acetyl]amino]ethyl]boronic Acid]				++++ (100 ≤ Selectivity < 150)	0.05 to 0.5	> 5
C#CC(=O)N(CC)CC(=O)N[C@@H](Cc1ccc(C)cc1C)B(O)O [Compound No. 12, [(1R)-2-(2,4-dimethylphenyl)-1-[[2-[ethyl(prop-2-ynoyl)amino]acetyl]-amino]ethyl]boronic Acid]				++++ (100 ≤ Selectivity < 150)	< 0.05	0.5 to 5
C=CS(=O)(=O)N(C)CC(=O)N[C@@H](Cc1ccc(C)cc1C)B(O)O [Compound No. 15, [(1R)-2-(2,4-dimethylphenyl)-1-[[2-[methyl(vinylsulfonyl)amino]-acetyl]amino]ethyl]boronic Acid]				+++ (70 ≤ 100)	< 0.05	0.5 to 5
C/C=C(/C)C(=O)N(CC)CC(=O)N[C@@H](Cc1ccc(C)cc1C)B(O)O [Compound No. 21, [(1R)-2-(2,4-dimethylphenyl)-1-[[2-[ethyl-[(Z)-2-methylbut-2-enoyl]amino]acetyl]amino]ethyl]boronic Acid]				++ (50 ≤ Selectivity < 70)	0.05 to 0.5	> 5
C=CC(=O)N(CC(=O)N[C@@H](Cc1ccc(C)c(C)c1)B(O)O)c1ccccc1 [Compound No. 17, [(1R)-2-(3,4-dimethylphenyl)-1-[[2-(N-prop-2-enoylanilino)acetyl]-amino]ethyl]boronic Acid]				+++ (70 ≤ 100)	< 0.05	0.5 to 5
C/C=C(\C)C(=O)N(CC)CC(=O)N[C@@H](Cc1ccc(C)cc1C)B(O)O [Compound No. 22, [(1R)-2-(2,4-dimethylphenyl)-1-[[2-[ethyl-[(E)-2-methylbut-2-enoyl]-amino]acetyl]amino]ethyl]boronic Acid]				++ (50 ≤ Selectivity < 70)	0.05 to 0.5	> 5
C=CC(=O)N(CC)CC(=O)N[C@@H](Cc1ccc(F)cc1)B(O)O [Compound No. 30, [(1R)-1-[[2-[ethyl(prop-2-enoyl)amino]acetyl]amino]-2-(4-fluorophenyl)ethyl]boronic Acid]				+++ (70 ≤ 100)	0.05 to 0.5	> 5
C=CC(=O)N(CC(=O)N[C@@H](Cc1ccc(C)cc1C)B(O)O)C(C)C [Compound No. 27, [(1R)-2-(2,4-dimethylphenyl)-1-[[2-[isopropyl(prop-2-enoyl)amino]-acetyl]amino]ethyl]boronic Acid]				+++ (70 ≤ 100)	0.05 to 0.5	> 5

More lines, now with the values ahead:

Selectivity LMP7 vs Beta5 [1, 3]	IC50 ([1]; long incubation (120 min)) [µM]	IC50 ([2]; long incubation (120 min)) [µM]	Selectivity LMP7 vs Beta5 [1, 4]	IC50 ([1]; incubation for 20 minutes) [µM]	IC50 ([2]; incubation for 20 minutes) [µM]	SMILES
+++++ (Selectivity ≥ 150)	< 0.05	0.5 to 5				C=CC(=O)N(CC(=O)N[C@@H](Cc1ccsc1)B(O)O)c1ccc(C(=O)N(C)C)cc1 [Compound No. 103, [(1R)-1-[[2-[4-(dimethylcarbamoyl)-N-prop-2-enoyl-anilino]acetyl]amino]-2-(3-thienyl)ethyl]boronic Acid]
+++++ (Selectivity ≥ 150)	0.05 to 0.5	> 5				C=CC(=O)N(C)[C@@H](C)C(=O)N[C@@H](Cc1ccc(C)c(C)c1)B(O)O [Compound No. 68, [(1R)-2-(3,4-dimethylphenyl)-1-[[(2S)-2-[methyl(prop-2-enoyl)amino]propanoyl]amino]ethyl]boronic Acid]
+++++ (Selectivity ≥ 150)	< 0.05	> 5				C=CC(=O)N(CC(=O)N[C@@H](Cc1ccc(C)c(C)c1)B(O)O)CC(F)(F)F [Compound No. 61, [(1R)-2-(3,4-dimethylphenyl)-1-[[2-[prop-2-enoyl(2,2,2-trifluoroethyl)amino]acetyl]amino]ethyl]boronic Acid]
+++++ (Selectivity ≥ 150)	< 0.05	> 5				C=CC(=O)N(CC)CC(=O)N[C@@H](Cc1ccc(Cl)c(Cl)c1)B(O)O [Compound No. 65, [(1R)-2-(3,4-dichlorophenyl)-1-[[2-[ethyl(prop-2-enoyl)amino]acetyl]amino]ethyl]boronic Acid]
+++++ (Selectivity ≥ 150)	< 0.05	> 5				C=CC(=O)N(CC(=O)N[C@@H](Cc1ccc(C)c(C)c1)B(O)O)C1CC1 [Compound No. 71, [(1R)-1-[[2-[cyclopropyl(prop-2-enoyl)amino]acetyl]amino]-2-(3,4-dimethylphenyl)ethyl]boronic Acid]
+++++ (Selectivity ≥ 150)	< 0.05	> 5				C=CC(=O)N(CC(=O)N[C@@H](Cc1cccc(F)c1)B(O)O)c1ccccc1F [Compound No. 98, [(1R)-2-(3-fluorophenyl)-1-[[2-(2-fluoro-N-prop-2-enoyl-anilino)acetyl]amino]ethyl]boronic Acid]
+++++ (Selectivity ≥ 150)	0.05 to 0.5	> 5				C=CC(=O)N(c1ccccc1)[C@H](C)C(=O)N[C@@H](Cc1ccc(C)c(C)c1)B(O)O [Compound No. 47, [(1R)-2-(3,4-dimethylphenyl)-1-[[(2R)-2-(N-prop-2-enoylanilino)propanoyl]amino]ethyl]boronic Acid]
+++++ (Selectivity ≥ 150)	0.05 to 0.5	> 5				C=CC(=O)N(CC(=O)N[C@@H](Cc1ccc(C)cc1C)B(O)O)CC(F)F [Compound No. 84, [(1R)-1-[[2-[2,2-difluoroethyl(prop-2-enoyl)amino]acetyl]-amino]-2-(2,4-dimethylphenyl)ethyl]boronic Acid]
++ (50 ≤ Selectivity < 70)	< 0.05	0.5 to 5				C=CC(=O)N(CC(=O)N[C@@H](Cc1ccsc1)B(O)O)c1cccc(C(=O)N(C)C)c1 [Compound No. 102, [(1R)-1-[[2-[3-(dimethylcarbamoyl)-N-prop-2-enoyl-anilino]acetyl]amino]-2-(3-thienyl)ethyl]boronic Acid]
